# Reference: patent publication US20250115569A1, “SULFONAMIDE COMPOUNDS FOR THE TREATMENT OF NEUROLOGICAL CONDITIONS” (LARIO THERAPEUTICS LIMITED, priority 2021, published 2025)
# Test system: Human Cav2.3 channel
# Test: Human Cav2.3 channel calcium-influx assay
# Type: cell-based
# Details: Fluo8 fluorescence, HEK-293 T-Rex/Kir2.1/Cav2.3e cells, without pluronic acid
# Description: HEK-293 T-Rex cells were transfected with pcDNA3.1-Kir2.1 to generate a stable cell line. After antibiotic selection, the obtained stable pools were analysed using FLIPR^TETRA (membrane potential assay), and a limiting dilution was performed and a HEK-293 T-Rex/Kir2.1 clone was selected. The clone was transfected with pcDNA3.1-Cav2.3e and pBud-Cav-β4-α2δ1 to generate a stable cell line where the Cav2.3e expression is inducible. After antibiotic selection, functional clone pool analysis and two successive limiting dilutions, the final clone underwent a qPCR analysis and a biophysical and pharmacological validation using patch-clamp.
# A compound plate, containing 10 test compounds in eight-points dose response with n=4, was prepared. Test compounds dose response curves were prepared in automated fashion in 100% DMSO at CyBio Felix and starting from a stock solution in 100% DMSO; a defined volume was serially moved into destination wells pre-filled with the desired DMSO volume; stock solution concentration volumes were dependent on the final compounds concentrations to be tested and the final DMSO content used in the assay. For the assay test compounds dose response curves ranged from 30 μM and half log dilution with 0.3% final DMSO. In order to obtain the 8-points dose response curve all the concentrations were created by starting from a 10 mM DMSO stock solution and then moving 9.5 μL into a destination well pre-filled with 20.5 μL of 100% DMSO and repeating this step seven times. This initial step was done into 96 MTP plates, 10 compounds/plate. One 384 MTP was then reformatted to contain all the 10 compounds at 8 concentrations, quadruplicate data points. This so obtained 384 MTP compound plate served as source plate in a “mother to child” process with a CyBi®-Well dispenser in which 0.7 μL of compounds were moved into a destination plate pre-filled with 57.6 μL of Tyrode's buffer 0 mM K+, thus obtaining 4× concentrated compounds solution. In columns 1-2 and 23-24 the control wells were added. Both “source” compound plate and “destination” compound plate were barcoded and a relationship between the two plates was thus generated.
# The day before the experiment, cells were detached by gentle wash with DPBS, followed by 5 min incubation at 37° C. with Trypsin solution. Detached cells were diluted with OptiMEM+Doxycycline at 0.2 μg/mL, counted and plated in Poly-D-Lysine coated black/clear bottom (15.000 c/well in 20 μl/well) by the use of a MATRIX WellMate dispenser. Plates were placed into a humidified incubator at 37° C. with 5% CO2 until the experimental day. 24 h after seeding 10 μL/well of 1.5× Fluo8 NW dye solution prepared in Tyrode's buffer 0 mM K* were added on top of the seeding medium. Cell plates were incubated for 40-60 min at RT in the dark. We then Injected off-line 10 μL/well of test compounds and controls 4× concentrated in Tyrode's Buffer 0 mM K+ with the CyBi®-Well instrument. Cell plates were incubated 3 minutes at RT. Finally, we injected 20 μL/well of 3× concentrated activator solution (K20-Na130-Ca2 buffer: 20 mM KCl, 130 mM NaCl, 2 mM CaCl2, 10 mM HEPES, 10 mM Glucose, final concentrations, prepared starting from “K0-Na150-Ca2” and “K150-Na0-Ca2” buffers) at FDSS7000EX instrument and read emitted fluorescence for 130 seconds.
# Data analysis was performed with Genedata Screener® software and reported compounds activity as % effect in relation to the normalization standards. The Kinetic Response Value (KRV) is calculated as follows:
# KRV=Maximal fluorescence recorded from second 5 to second 130 minus baseline fluorescence, computed as average from second 1 to second 2, of the kinetic trace. The KRV was normalized versus Neutral Controls and Inhibitor Controls in order to obtain the Activity[%] for each well. […] Therefore, the compound activity values were scaled (based on the two references) to a common range (two-point normalization). […]
row,SMILES,Cav2.3 (pIC50)
1,"Cc1ncc(S(=O)(=O)N(C)[C@@H](c2ccc(F)cc2)C(F)(F)F)cn1 [Example 79, (S)—N,2-dimethyl-N-(2,2,2-trifluoro-1-(4-fluorophenyl)ethyl)pyrimidine-5-sulfonamide]",4.99
2,"CCN(C(c1cccc(C(F)(F)F)c1)C(F)(F)F)S(=O)(=O)c1cncc(C#N)c1 (stereo not drawn) [Example 85, 5-Cyano-N-ethyl-N-(2,2,2-trifluoro-1-(3-(trifluoromethyl)phenyl)ethyl)pyridine-3-sulfonamide]",6.34
3,"CCN(C(c1ccccc1C)C(F)(F)F)S(=O)(=O)c1cncc(C#N)c1 (stereo not drawn) [Example 86, 5-cyano-N-ethyl-N-(2,2,2-trifluoro-1-(o-tolyl)ethyl)pyridine-3-sulfonamide]",5.95
4,"CCN(C(c1ccc(F)cc1)C(F)(F)F)S(=O)(=O)c1ccc(C2=CCOCC2)s1 (stereo not drawn) [Example 87, 5-(3,6-Dihydro-2H-pyran-4-yl)-N-ethyl-N-(2,2,2-trifluoro-1-(4-fluorophenyl)ethyl)thiophene-2-sulfonamide]",5.50
5,"CCN(C(c1ccc(F)cc1)C(F)(F)F)S(=O)(=O)c1ccc(C2CCOCC2)s1 (stereo not drawn) [Example 88, N-ethyl-5-(tetrahydro-2H-pyran-4-yl)-N-(2,2,2-trifluoro-1-(4-fluorophenyl)ethyl)thiophene-2-sulfonamide]",5.60
6,"CCN(C(c1ccc(F)cc1)C(F)(F)F)S(=O)(=O)c1ccc(N2CCOCC2)s1 (stereo not drawn) [Example 89, N-ethyl-5-morpholino-N-(2,2,2-trifluoro-1-(4-fluorophenyl)ethyl)thiophene-2-sulfonamide]",5.68
7,"CCN([C@H](c1ccc(F)cc1)C(F)(F)F)S(=O)(=O)c1ccc(N2CCOCC2)s1 [Example 90, (R)—N-ethyl-5-morpholino-N-(2,2,2-trifluoro-1-(4-fluorophenyl)ethyl)thiophene-2-sulfonamide]",6.20
8,"CCN([C@@H](c1ccc(F)cc1)C(F)(F)F)S(=O)(=O)c1ccc(N2CCOCC2)s1 [Example 91, (S)—N-ethyl-5-morpholino-N-(2,2,2-trifluoro-1-(4-fluorophenyl)ethyl)thiophene-2-sulfonamide]",5.37
9,"CCN(C(c1ccc(F)cc1)C(F)(F)F)S(=O)(=O)c1cncc(N2CCOCC2)c1 (stereo not drawn) [Example 93, N-ethyl-5-morpholino-N-(2,2,2-trifluoro-1-(4-fluorophenyl)ethyl)pyridine-3-sulfonamide]",6.53
10,"CCN(C(c1ccc(F)cc1)C(F)(F)F)S(=O)(=O)c1cncc(N2CCCC2)c1 (stereo not drawn) [Example 94, N-ethyl-5-(pyrrolidin-1-yl)-N-(2,2,2-trifluoro-1-(4-fluorophenyl)ethyl)pyridine-3-sulfonamide]",5.85
11,"CCN([C@@H](c1ccc(F)cc1)C(F)(F)F)S(=O)(=O)c1cncc(N2CCOCC2)c1 [Example 95, (S)—N-ethyl-5-morpholino-N-(2,2,2-trifluoro-1-(4-fluorophenyl)ethyl)pyridine-3-sulfonamide]",5.62
12,"CCN([C@@H](c1ccc(F)cc1)C(F)(F)F)S(=O)(=O)c1cncc(N2CCCC2)c1 [Example 97, (S)—N-ethyl-5-(pyrrolidin-1-yl)-N-(2,2,2-trifluoro-1-(4-fluorophenyl)ethyl)pyridine-3-sulfonamide]",5.22
13,"CCN([C@H](c1ccc(F)cc1)C(F)(F)F)S(=O)(=O)c1cncc(N2CCCC2)c1 [Example 98, (R)—N-ethyl-5-(pyrrolidin-1-yl)-N-(2,2,2-trifluoro-1-(4-fluorophenyl)ethyl)pyridine-3-sulfonamide]",5.80
14,"CCN(C(c1ccc(F)cc1)C(F)(F)F)S(=O)(=O)c1ccn(C)c(=O)c1 (stereo not drawn) [Example 103, N-ethyl-1-methyl-2-oxo-N-(2,2,2-trifluoro-1-(4-fluorophenyl)ethyl)-1,2-dihydropyridine-4-sulfonamide]",6.50
15,"CCN(C(c1ccc(C)cc1)C(F)(F)F)S(=O)(=O)c1cncc(C#N)c1 (stereo not drawn) [Example 104, 5-Cyano-N-ethyl-N-(2,2,2-trifluoro-1-(p-tolyl)ethyl)pyridine-3-sulfonamide]",7.24
16,"CCN([C@@H](c1ccc(C)cc1)C(F)(F)F)S(=O)(=O)c1cncc(C#N)c1 [Example 105, (S)-5-Cyano-N-ethyl-N-(2,2,2-trifluoro-1-(p-tolyl)ethyl)pyridine-3-sulfonamide]",5.38
17,"CCN([C@H](c1ccc(C)cc1)C(F)(F)F)S(=O)(=O)c1cncc(C#N)c1 [Example 106, (R)-5-Cyano-N-ethyl-N-(2,2,2-trifluoro-1-(p-tolyl)ethyl)pyridine-3-sulfonamide]",7.51
18,"CCN(C(c1ccccc1OC)C(F)(F)F)S(=O)(=O)c1cncc(C#N)c1 (stereo not drawn) [Example 107, 5-Cyano-N-ethyl-N-(2,2,2-trifluoro-1-(2-methoxyphenyl)ethyl)pyridine-3-sulfonamide]",5.08
19,"CCN([C@@H](c1ccccc1OC)C(F)(F)F)S(=O)(=O)c1cncc(C#N)c1 [Example 108, (S)-5-cyano-N-ethyl-N-(2,2,2-trifluoro-1-(2-methoxyphenyl)ethyl)pyridine-3-sulfonamide]",4.30
20,"CCN([C@H](c1ccccc1OC)C(F)(F)F)S(=O)(=O)c1cncc(C#N)c1 [Example 109, (R)-5-cyano-N-ethyl-N-(2,2,2-trifluoro-1-(2-methoxyphenyl)ethyl)pyridine-3-sulfonamide]",4.59
21,"CCN(C(c1cccc(F)c1)C(F)(F)F)S(=O)(=O)c1cncc(C#N)c1 (stereo not drawn) [Example 110, 5-Cyano-N-ethyl-N-(2,2,2-trifluoro-1-(3-fluorophenyl)ethyl)pyridine-3-sulfonamide]",7.11
22,"CCN([C@H](c1cccc(F)c1)C(F)(F)F)S(=O)(=O)c1cncc(C#N)c1 [Example 111, (R)-5-Cyano-N-ethyl-N-(2,2,2-trifluoro-1-(3-fluorophenyl)ethyl)pyridine-3-sulfonamide]",7.63
23,"CCN([C@@H](c1cccc(F)c1)C(F)(F)F)S(=O)(=O)c1cncc(C#N)c1 [Example 112, (S)-5-cyano-N-ethyl-N-(2,2,2-trifluoro-1-(3-fluorophenyl)ethyl)pyridine-3-sulfonamide]",5.95
24,"CCN(C(c1cccc(C)c1)C(F)(F)F)S(=O)(=O)c1cncc(C#N)c1 (stereo not drawn) [Example 113, 5-Cyano-N-ethyl-N-(2,2,2-trifluoro-1-(m-tolyl)ethyl)pyridine-3-sulfonamide]",6.96
25,"CCN([C@H](c1cccc(C)c1)C(F)(F)F)S(=O)(=O)c1cncc(C#N)c1 [Example 114, (R)-5-cyano-N-ethyl-N-(2,2,2-trifluoro-1-(m-tolyl)ethyl)pyridine-3-sulfonamide]",6.87
26,"CCN([C@@H](c1cccc(C)c1)C(F)(F)F)S(=O)(=O)c1cncc(C#N)c1 [Example 115, (S)-5-cyano-N-ethyl-N-(2,2,2-trifluoro-1-(m-tolyl)ethyl)pyridine-3-sulfonamide]",5.44
27,"CCN([C@H](c1ccccc1F)C(F)(F)F)S(=O)(=O)c1cncc(C#N)c1 [Example 116, (R)-5-Cyano-N-ethyl-N-(2,2,2-trifluoro-1-(2-fluorophenyl)ethyl)pyridine-3-sulfonamide]",5.81
